EC50 data for 49 compounds are collected here from patent US8778923B2, “GLP-1 receptor modulators” (Receptos, Inc., priority 2011, dated 2014).

The term EC50 denotes the concentration giving half of the maximal effect.

SMILES strings stand for the structures.

The target in the test is T1, GLP-1R (Homo sapiens, UniProt P43220).
T1 construct: host or cells: CRE-bla CHO-K1
T1 sequence (P43220 24-463): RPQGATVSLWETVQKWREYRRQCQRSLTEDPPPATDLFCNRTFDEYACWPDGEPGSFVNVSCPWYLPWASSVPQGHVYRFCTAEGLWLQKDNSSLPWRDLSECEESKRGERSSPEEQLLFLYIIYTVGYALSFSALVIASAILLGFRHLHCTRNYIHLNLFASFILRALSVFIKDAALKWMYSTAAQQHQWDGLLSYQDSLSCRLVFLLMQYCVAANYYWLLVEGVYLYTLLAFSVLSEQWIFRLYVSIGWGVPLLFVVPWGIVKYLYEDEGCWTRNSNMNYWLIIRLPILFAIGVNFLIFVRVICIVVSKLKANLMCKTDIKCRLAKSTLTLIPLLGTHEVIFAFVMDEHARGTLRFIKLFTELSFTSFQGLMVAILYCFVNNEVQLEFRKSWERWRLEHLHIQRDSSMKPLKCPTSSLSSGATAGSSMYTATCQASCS
T1 sequence (P01275 100-127 partner limits assumed): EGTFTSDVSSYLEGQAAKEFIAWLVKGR
Kind of test: EC20 GLP-1(9-36) PAM cAMP assay: dose response of compound in the presence of fixed concentration of GLP-1(9-36). The class given is cell-based. The following applies: GLP-1R CRE-bla CHO-K1 cells, compound dose response in presence of fixed concentration of GLP-1(9-36). The procedure:
EC20 GLP-1(9-36) PAM cAMP Assay: Dose Response of Compound in the Presence of Fixed Concentration of GLP-1 (9-36).
GLP-1R CRE-bla CHO-K1 cells cultured in growth medium (DMEM-High glucose, 10% dialyzed FBS, 0.1 mM NEAA, 25 mM Hepes, 100 U/mL penicillin/100 μg/mL streptomycin, 5 μg/mL Blasticidin, 600 μg/mL Hygromycin) were tryspsinized and plated in suspension into 384 well white flat bottom plates at 5000 cells/well in 12 μL assay buffer (Hanks Balanced Salt solution, 10 mM Hepes, 0.1% BSA, pH 7.4). A 5× compound dose response curve (12-point) was generated in assay buffer containing 1.5 mM IBMX, 12.5% DMSO. GLP-1(9-36) was diluted to 4.2 μM in assay buffer containing 1.5 mM IBMX and 12.5% DMSO. The 5× compound dose response was added (3 μL), followed by 0.5 μL of GLP-1(9-36) and cells were incubated for 30 min at 37° C. Direct detection of cAMP was carried out using DiscoveRx HitHunter cAMP kit according to manufacturer's instructions and luminescence was read using a SpectraMax M5 plate reader. Luminescence was converted to total cAMP using a cAMP standard curve and data was analyzed by non-linear regression to determine the EC50 and Emax.
GLP-1(7-36): […]-NH2. GLP-1(9-36): […]-NH2. GLP-1(7-36) was purchased from GenScript. GLP-1(9-36) was purchased from Biopeptide Co., Inc.
A general note: Changes in cAMP serve as a functional read-out for many G protein-coupled receptors.
For the compound `CCCCCCCOc1ccc(-c2noc(-c3ccc(C[C@H](NC(=O)c4ccc(C(C)(C)C)cc4)C(=O)O)cc3)n2)cc1` [Compound 1, (S)-2-(4-(tert-butyl)benzamido)-3-(4-(3-(4-(heptyloxy)phenyl)-1,2,4-oxadiazol-5-yl)phenyl)propanoic acid], the EC50 was in the range of 0.8 to 2.5 µM. Turning to `CCCCCCCOc1ccc(-c2nc(-c3ccc(C[C@H](NC(=O)c4ccc(C(C)(C)C)cc4)C(=O)O)cc3)no2)cc1` [Compound 2, (S)-2-(4-(tert-butyl)benzamido)-3-(4-(5-(4-(heptyloxy)phenyl)-1,2,4-oxadiazol-3-yl)phenyl)propanoic acid], the concentration for a half-maximal effect (EC50) was 2.5 to 5 µM. Take `Cc1ccc(-c2ccc(-c3nc(-c4ccc(C[C@H](NC(=O)c5ccc(C(C)(C)C)cc5)C(=O)O)cc4)no3)cc2)cc1` [Compound 3]: the EC50 lay within 5 to 10 µM. The same measure for `CC(C)(C)c1ccc(C(=O)N[C@@H](Cc2ccc(-c3noc(-c4ccc(-c5ccccc5)cc4)n3)cc2)C(=O)O)cc1` [Compound 4]: 5 to 10 µM; for `CC(C)(C)c1ccc(C(=O)N[C@@H](Cc2ccc(-c3noc(-c4ccc(N5CCCCC5)cc4)n3)cc2)C(=O)O)cc1` [Compound 5]: 2.5 to 5 µM.

For the compound `CC1CCN(c2ccc(-c3nc(-c4ccc(C[C@H](NC(=O)c5ccc(C(C)(C)C)cc5)C(=O)O)cc4)no3)cc2)CC1` [Compound 6], the concentration for a half-maximal effect (EC50) fell in the range of 5 to 10 µM. Take `Cc1ccc(-c2nc(-c3ccc(C[C@H](NC(=O)c4ccc(C(C)(C)C)cc4)C(=O)O)cc3)no2)cc1` [Compound 7]: the concentration giving a half-maximal response (EC50) was in the range of 5 to 10 µM. For `CC(C)(C)c1ccc(C(=O)N[C@@H](Cc2ccc(-c3noc(-c4ccc(C(C)(C)C)cc4)n3)cc2)C(=O)O)cc1` [Compound 8], the EC50 fell in the range of 0.8 to 2.5 µM. The same measure for `COc1cc(C)ccc1-c1nc(-c2ccc(C[C@H](NC(=O)c3ccc(C(C)(C)C)cc3)C(=O)O)cc2)no1` [Compound 9]: 5 to 10 µM; for `CC(C)c1ccc(-c2nc(-c3ccc(C[C@H](NC(=O)c4ccc(C(C)(C)C)cc4)C(=O)O)cc3)no2)cc1` [Compound 10]: 2.5 to 5 µM. The same measure for `CC(C)(C)c1ccc(C(=O)N[C@@H](Cc2ccc(-c3noc(-c4ccc(C(F)(F)F)cc4)n3)cc2)C(=O)O)cc1` [Compound 11]: 0.8 to 2.5 µM; for `Cc1cccc(-c2ccc(-c3nc(-c4ccc(C[C@H](NC(=O)c5ccc(C(C)(C)C)cc5)C(=O)O)cc4)no3)cc2)c1` [Compound 13]: 0.8 to 2.5 µM. The same measure for `Cc1ccccc1-c1ccc(-c2nc(-c3ccc(C[C@H](NC(=O)c4ccc(C(C)(C)C)cc4)C(=O)O)cc3)no2)cc1` [Compound 14]: 2.5 to 5 µM; for `COc1ccc(-c2ccc(-c3nc(-c4ccc(C[C@H](NC(=O)c5ccc(C(C)(C)C)cc5)C(=O)O)cc4)no3)cc2)cc1` [Compound 15]: 2.5 to 5 µM; for `CC(C)(C)c1ccc(C(=O)N[C@@H](Cc2ccc(-c3noc(-c4ccc(-c5ccc(Cl)cc5)cc4)n3)cc2)C(=O)O)cc1` [Compound 16]: 5 to 10 µM. On to `CC(C)(C)c1ccc(C(=O)N[C@@H](Cc2ccc(-c3noc(-c4ccc(-c5cccc(Cl)c5)cc4)n3)cc2)C(=O)O)cc1` [Compound 17], for which the EC50 fell in the range of 2.5 to 5 µM.

For the compound `CC(C)(C)c1ccc(C(=O)N[C@@H](Cc2ccc(-c3noc(-c4ccc(-c5ccccc5Cl)cc4)n3)cc2)C(=O)O)cc1` [Compound 18], the EC50 lay in the range of 0.8 to 2.5 µM. The same measure for `CC(C)(C)c1ccc(C(=O)N[C@@H](Cc2ccc(-c3noc(-c4ccc(-c5ccccc5F)cc4)n3)cc2)C(=O)O)cc1` [Compound 19]: 0.8 to 2.5 µM; for `CC(C)(C)c1ccc(C(=O)N[C@@H](Cc2ccc(-c3noc(-c4ccc(-c5cccc(F)c5)cc4)n3)cc2)C(=O)O)cc1` [Compound 20]: 0.8 to 2.5 µM; for `CC(C)(C)c1ccc(C(=O)N[C@@H](Cc2ccc(-c3noc(-c4ccc(-c5ccc(F)cc5)cc4)n3)cc2)C(=O)O)cc1` [Compound 21]: 2.5 to 5 µM. The same measure for `CC(C)(C)c1ccc(C(=O)N[C@@H](Cc2ccc(-c3noc(-c4ccc(-c5ccc(F)c(F)c5)cc4)n3)cc2)C(=O)O)cc1` [Compound 22]: 2.5 to 5 µM. The same measure for `CC(C)(C)c1ccc(C(=O)N[C@@H](Cc2ccc(-c3noc(-c4ccc(-c5cc(F)ccc5F)cc4)n3)cc2)C(=O)O)cc1` [Compound 23]: 2.5 to 5 µM. For the compound `CC(C)(C)c1ccc(C(=O)N[C@@H](Cc2ccc(-c3noc(-c4ccc(-c5ccc(F)cc5F)cc4)n3)cc2)C(=O)O)cc1` [Compound 24], the EC50 is 0.8 to 2.5 µM. Regarding `COc1ccc(-c2ccc(-c3nc(-c4ccc(C[C@H](NC(=O)c5ccc(C(C)(C)C)cc5)C(=O)O)cc4)no3)cc2)c(OC)c1` [Compound 25], the EC50 lay within 0.8 to 2.5 µM.

As for `COc1cc(OC)cc(-c2ccc(-c3nc(-c4ccc(C[C@H](NC(=O)c5ccc(C(C)(C)C)cc5)C(=O)O)cc4)no3)cc2)c1` [Compound 26], the half-maximal effective concentration (EC50) lay in the range of 2.5 to 5 µM.

`COc1cc(C(F)(F)F)ccc1-c1ccc(-c2nc(-c3ccc(C[C@H](NC(=O)c4ccc(C(C)(C)C)cc4)C(=O)O)cc3)no2)cc1` [Compound 27]: the concentration for a half-maximal effect (EC50) fell in the range of 0.8 to 2.5 µM. The same measure for `CC(C)(C)c1ccc(C(=O)N[C@@H](Cc2ccc(-c3noc(-c4ccc(-c5cccc(C#N)c5)cc4)n3)cc2)C(=O)O)cc1` [Compound 28]: 2.5 to 5 µM; for `CC(C)(C)c1ccc(C(=O)N[C@@H](Cc2ccc(-c3noc(-c4ccc(-c5ccc(C#N)cc5)cc4)n3)cc2)C(=O)O)cc1` [Compound 29]: 0.8 to 2.5 µM; for `COc1ccc(-c2ccc(-c3nc(-c4ccc(C[C@H](NC(=O)c5ccc(C(C)(C)C)cc5)C(=O)O)cc4)no3)cc2)cc1OC` [Compound 30]: 0.8 to 2.5 µM. The same measure for `CC(C)(C)c1ccc(C(=O)N[C@@H](Cc2ccc(-c3noc(-c4ccc(-c5ccccc5C#N)cc4)n3)cc2)C(=O)O)cc1` [Compound 31]: 0.8 to 2.5 µM. For `CC(C)(C)c1ccc(C(=O)N[C@@H](Cc2ccc(-c3noc(-c4ccc(N5CCCCC5)nc4)n3)cc2)C(=O)O)cc1` [Compound 32], the EC50 lay in the range of 5 to 10 µM. The same measure for `CC(C)Oc1ccc(-c2nc(-c3ccc(C[C@H](NC(=O)c4ccc(C(C)(C)C)cc4)C(=O)O)cc3)no2)cc1` [Compound 33]: 2.5 to 5 µM; for `CCCOc1ccc(-c2nc(-c3ccc(C[C@H](NC(=O)c4ccc(C(C)(C)C)cc4)C(=O)O)cc3)no2)cc1` [Compound 34]: 2.5 to 5 µM. For `CC(C)(C)c1ccc(C(=O)N[C@@H](Cc2ccc(-c3noc(-c4ccc(Oc5ccccc5)cc4)n3)cc2)C(=O)O)cc1` [Compound 35], the EC50 was 2.5 to 5 µM.

Consider `CC(C)(C)c1ccc(C(=O)N[C@@H](Cc2ccc(-c3noc(-c4ccc(OCc5ccccc5)cc4)n3)cc2)C(=O)O)cc1` [Compound 36], for which the EC50 fell in the range of 2.5 to 5 µM. For the compound `COc1ccc(-c2nc(-c3ccc(C[C@H](NC(=O)c4ccc(C(C)(C)C)cc4)C(=O)O)cc3)no2)cc1OC` [Compound 37], the EC50 fell in the range of 2.5 to 5 µM. Consider `COc1cc(OC)cc(-c2nc(-c3ccc(C[C@H](NC(=O)c4ccc(C(C)(C)C)cc4)C(=O)O)cc3)no2)c1` [Compound 38], for which the half-maximal effective concentration (EC50) was 0.8 to 2.5 µM. The same measure for `COc1cc(-c2nc(-c3ccc(C[C@H](NC(=O)c4ccc(C(C)(C)C)cc4)C(=O)O)cc3)no2)cc(OC)c1OC` [Compound 39]: 0.8 to 2.5 µM. The same measure for `CSc1ccc(-c2nc(-c3ccc(C[C@H](NC(=O)c4ccc(C(C)(C)C)cc4)C(=O)O)cc3)no2)cc1` [Compound 40]: 2.5 to 5 µM. In the case of `CC(C)(C)c1ccc(C(=O)N[C@@H](Cc2ccc(-c3noc(-c4ccc(S(C)(=O)=O)cc4)n3)cc2)C(=O)O)cc1` [Compound 41], the EC50 was in the range of 2.5 to 5 µM.

For the compound `CCSc1ccc(-c2nc(-c3ccc(C[C@H](NC(=O)c4ccc(C(C)(C)C)cc4)C(=O)O)cc3)no2)cc1` [Compound 42], the half-maximal effective concentration (EC50) lay in the range of 2.5 to 5 µM. The same measure for `CC(C)(C)c1ccc(C(=O)N[C@@H](Cc2ccc(-c3noc(-c4ccc(O)cc4)n3)cc2)C(=O)O)cc1` [Compound 43]: 2.5 to 5 µM; for `CC(=O)Nc1ccc(-c2nc(-c3ccc(C[C@H](NC(=O)c4ccc(C(C)(C)C)cc4)C(=O)O)cc3)no2)cc1` [Compound 44]: 2.5 to 5 µM; for `CC(=O)c1ccc(-c2nc(-c3ccc(C[C@H](NC(=O)c4ccc(C(C)(C)C)cc4)C(=O)O)cc3)no2)cc1` [Compound 45]: 0.8 to 2.5 µM. On to `CCCc1ccc(-c2nc(-c3ccc(C[C@H](NC(=O)c4ccc(C(C)(C)C)cc4)C(=O)O)cc3)no2)cc1` [Compound 46], for which the EC50 was in the range of 0.8 to 2.5 µM. Turning to `CN(C)c1ccc(-c2nc(-c3ccc(C[C@H](NC(=O)c4ccc(C(C)(C)C)cc4)C(=O)O)cc3)no2)cc1` [Compound 47], the 50% effective concentration (EC50) fell in the range of 2.5 to 5 µM. The same measure for `CCN(CC)c1ccc(-c2nc(-c3ccc(C[C@H](NC(=O)c4ccc(C(C)(C)C)cc4)C(=O)O)cc3)no2)cc1` [Compound 48]: 5 to 10 µM. The same measure for `Cn1ccc2c(-c3nc(-c4ccc(C[C@H](NC(=O)c5ccc(C(C)(C)C)cc5)C(=O)O)cc4)no3)cccc21` [Compound 49]: 5 to 10 µM; for `Cn1ccc2cc(-c3nc(-c4ccc(C[C@H](NC(=O)c5ccc(C(C)(C)C)cc5)C(=O)O)cc4)no3)ccc21` [Compound 50]: 2.5 to 5 µM.
